Measured values as given in patent publication US11440906B2, “Biguanide derivatives and their rearrangement products for use in the treatment of cancer” (CENTRE NATIONAL DE LA RECHERCHE SCIENTIFIQUE, priority 2017, dated 2022).

Key:
patient melanoma cells = experiment: Viability test with CRO15, patient melanoma cells; format: cell-based, human; conditions: 5 μM, 48 hours; FIG. 1D
Description: (§1) Fresh sterile tissues were obtained from surgical waste from patients diagnosed with metastatic melanoma at the Nice CHU hospital. Epidermal cell suspensions were obtained from foreskins of Caucasian children by overnight digestion in phosphate-buffered saline containing 0.5% dispase grade II at 4° C., followed by a 20 min digestion with 0.05% trypsin-0.02% EDTA in phosphate-buffered saline (V/V) at 37° C. Human primary melanocytes were grown in MCDB153 medium supplemented with 2% FCS, 0.4 μg/ml hydrocortisone, 5 μg/ml insulin, 16 nM phorbol-12 myristate 13-acetate, 1 ng/ml basic fibroblast growth factor, 10 μg/ml bovine pituitary extract and penicillin/streptomycin (100 U/ml/50 μg/ml). […]
(§2) For trypan blue staining, […] of cells (melanoma and normal human cells) were aseptically transferred to a 1.5 mL clear Eppendorf tube and incubated for 3 min at room temperature with an equal volume of 0.4% trypan blue solution. Viable cells were counted and the results are expressed as the percentage of the value of control cells. […]
(§3) Different melanoma cell lines with various mutations, patient cells with various mutations and normal human cells, were treated with 5 μM of CRO15 for 48 hours or DMSO (Control). At the end of stimulation, viable cells were counted using the trypan blue dye exclusion method. […]

[1] = test system: A375 sensitive melanoma cells; experiment: In vivo murine cancer model, A375 sensitive xenograft; parameters: species or system BALB/c nu/nu (nude) mice; conditions: 0.7 mg/mouse/day intraperitoneal
Description: Animal experiments were carried out in accordance with the Declaration of Helsinki and were approved by a local ethical committee CIEPAL (Comité Institutionnel d'Ethique Pour l'Animal de Laboratoire-Azur). Female immune-deficient BALB/c nu/nu (nude) mice were obtained at 5 weeks of age from Envigo Laboratory (Gannat, France). Nude mice were inoculated subcutaneously with A375 sensitive or resistant melanoma cells (1.0×10^6 cells/mouse). After tumor apparition (±5 days), animals received intraperitoneal injection of Labrafil (Control), PLX4032 (0.7 mg/mouse/day) or CRO15 (0.7 mg/mouse/day) dissolved in Labrafil. The growth tumor curves were determined by measuring the tumor volume using the equation V=(L*W2)/2 (V=tumor volume, W=tumor width, L=tumor length). At the end of the experiment, mice were euthanized by cervical dislocation and tumors were taken for western blot and immunofluorescence experiments (LC3, Cleaved Caspase 3). TUNEL assay was performed using the In Situ Cell Death Detection Kit (Roche, Meylan, France). The results are shown in FIGS. 3A and 3B (A375 sensitive melanoma cells), and 4B and 4C (A375 resistant melanoma cells).

[2] = test system: A375 resistant melanoma cells; experiment: Viability test of CRO15 on resistant melanoma cells; format: cell-based, human; conditions: 48 hr, FIG. 4A
Description: Resistant melanoma cell lines A375 and SKMel28 were a gift from Professor P. Marchetti and described in Corazao-Rozas et al. (2013). Cells were grown in RPMI 1640 or in DMEM supplemented with 10% of Foetal Calf Serum (FCS) and penicillin/streptomycin (100 U/ml/[…]) at 37° C. and 5% CO2.
(§4) For trypan blue staining, […] of cells (melanoma and normal human cells) were aseptically transferred to a 1.5 mL clear Eppendorf tube and incubated for 3 min at room temperature with an equal volume of 0.4% trypan blue solution. Viable cells were counted and the results are expressed as the percentage of the value of control cells. All the experiments are performed 3 times in triplicate.
A375 sensitive and resistant melanoma cells were treated with 5 μM of CRO15 for 48 hr or with 5 μM of PLX4032 for 48 hr or with DMSO (Control). At 48 hours, viable cells were counted using the trypan blue dye exclusion method. The results are normalized as percentages compare to the control and data means±SEM of three independent experiments performed in triplicate *p<0.05; **p<0.01; ***p<0.001.

[3] = test system: Different melanoma cell lines with various mutations; experiment: Viability test with CRO15, melanoma cell lines with various mutations; format: cell-based, human; conditions: 5 μM, 48 hours; FIG. 1C
Excerpt: Different melanoma cell lines were purchased from the American Tissue Culture Collection: A375 and WM9 cells are mutated on B-Raf, CDKN2A and PTEN proteins; SKmel28 cells are mutated on B-Raf and P53 proteins; 1205Lu cells are mutated on B-Raf and PTEN proteins; G-361 cells are mutated on B-Raf and CDKN2A proteins; C8161 cells are mutated on B-Raf and K-Ras proteins; WM3912 cells are mutated on B-Raf and CDKN2A proteins; MeWo cells are mutated on P53 and CDKN2A proteins; WM3918 presents no mutations on characteristic proteins.
as §4
Different melanoma cell lines with various mutations, patient cells with various mutations and normal human cells, were treated with 5 μM of CRO15 for 48 hours or DMSO (Control). At the end of stimulation, viable cells were counted using the trypan blue dye exclusion method. The results are normalized as percentages compare to the control and data means±SEM of three independent experiments performed in triplicate *p<0.05; **p<0.01; ***p<0.001. […]

murine melanoma BP cells = experiment: Murine melanoma BP cells allografted into C57BL6 mice; format: in vivo, C57BL6/J mice; conditions: BP cells allograft, immunocompetent C57BL/6, 0.7 mg/mouse/day intraperitoneal; FIG. 7A
Description: In Vivo Murine Cancer Model Animal experiments were carried out in accordance with the Declaration of Helsinki and were approved by a local ethical committee CIEPAL (Comite Institutionnel d'Ethique Pour l'Animal de Laboratoire-Azur). Female C57BL6/J mice were obtained at 5 weeks of age from Envigo Laboratory (Gannat, France). Mice were inoculated subcutaneously with BP melanoma cells (1×10^6 cells/mouse). After tumor apparition (+5 days), animals received intraperitoneal injection of Labrafil (vehicle) or CRO15 (0.7 mg/mouse/day). The growth tumor curves were determined by measuring the tumor volume using the equation V=(L*W2)/2, (V=tumor volume, W=tumor width, L=tumor length). At the end of the experiment, mice were euthanized by cervical dislocation.

normal human cells = experiment: Viability test with CRO15, normal human cells; format: cell-based; conditions: 5 μM, 48 hours; FIG. 1E
Description: as §1, §2, §3

Melanoma cell line DR6 = experiment: Viability test on double resistant cells to BRAF and MEK inhibitors; format: cell-based; conditions: 5 μM or 10 μM, 24 hours; FIG. 5
Description: as §4
Melanoma cell line DR6 resistant cells to B-Raf inhibitor (Vemurafenib=PLX4032) and to MEK inhibitor (Cobimetinib) were treated with DMSO (control), with 5 μM or 10 μM of CRO15 or with a combination of 1 μM of vemurafenib and 0.5 μM of cobimetinib. After 24 hours of stimulation, viable cells were counted using the trypan blue dye exclusion method. The results are normalized as percentages compare to the control. Error bars represents ±SEM of triplicate.

Nc1nc(Nc2ccccc2SSc2ccccc2Nc2nc(N)nc(C(Cl)(Cl)Cl)n2)nc(C(Cl)(Cl)Cl)n1 [CRO15, N2,N2′-(disulfanediylbis(2,1-phenylene))bis(6-(trichloromethyl)-1,3,5-triazine-2,4-diamine)]
viability of patient melanoma cells (patient melanoma cells): induces a decrease of the viability | tumor volume ([1]; FIG. 3A): reduces | tumor weight ([1]; FIG. 3B): reduces | decrease of the viability compared with PLX4032 ([2]; 5 μM each, A375 sensitive and resistant): more important with CRO15 than with PLX4032 | cell viability, A375 resistant melanoma cells ([2]; 5 μM): induces a decrease of the cell viability | viability of different melanoma cell lines with various mutations [3]: induces a decrease of the viability | tumor growth (tumor volume) (murine melanoma BP cells): no tumor growth | viability of normal cells (toxicity) (normal human cells): not toxic for normal cells | cell viability of DR6 cells (Melanoma cell line DR6): induces a decrease of the cell viability
